# Results from ChEMBL document CHEMBL4376892, “Identification of Parthenolide Dimers as Activators of Pyruvate Kinase M2 in Xenografts of Glioblastoma Multiforme in Vivo” (J Med Chem, 2020).
# Structures can show the parent of a compound that is named as a salt. Activity calls are given as the source filed them. The calls are words filed in the database; no cut-off is given here.
# Tests used:
# C6 = assay: Antiproliferative activity against rat C6 cells assessed as reduction in cell viability after 72 hrs by MTT assay; type: functional, cell-based; conditions: C6, 72 h
# U-251 = assay: Antiproliferative activity against human U251 cells assessed as reduction in cell viability after 72 hrs by MTT assay; type: functional, cell-based; conditions: U-251, 72 h
# U-87 MG = assay: Antiproliferative activity against human U87 cells assessed as reduction in cell viability after 72 hrs by MTT assay; type: functional, cell-based, U-87MG ATCC
# [1] = Antiproliferative activity against human SHG44 cells assessed as reduction in cell viability after 72 hrs by MTT assay; type: functional, cell-based; conditions: SHG-44, 72 h
# U-118-MG [2] = assay: Antiproliferative activity against human U118MG cells assessed as reduction in cell viability after 72 hrs by MTT assay; type: functional, cell-based
# Pyruvate kinase PKM [3] = biological target: T1, Pyruvate kinase PKM (Homo sapiens, UniProt P14618); assay: Activation of recombinant human N-terminal 6His-tagged PKM2 expressed in Escherichia coli BL21 cells at 10 uM after 30 mins by fluorescence based analysis relative to control
# Target sequence in this assay (P14618 2-531 limits assumed): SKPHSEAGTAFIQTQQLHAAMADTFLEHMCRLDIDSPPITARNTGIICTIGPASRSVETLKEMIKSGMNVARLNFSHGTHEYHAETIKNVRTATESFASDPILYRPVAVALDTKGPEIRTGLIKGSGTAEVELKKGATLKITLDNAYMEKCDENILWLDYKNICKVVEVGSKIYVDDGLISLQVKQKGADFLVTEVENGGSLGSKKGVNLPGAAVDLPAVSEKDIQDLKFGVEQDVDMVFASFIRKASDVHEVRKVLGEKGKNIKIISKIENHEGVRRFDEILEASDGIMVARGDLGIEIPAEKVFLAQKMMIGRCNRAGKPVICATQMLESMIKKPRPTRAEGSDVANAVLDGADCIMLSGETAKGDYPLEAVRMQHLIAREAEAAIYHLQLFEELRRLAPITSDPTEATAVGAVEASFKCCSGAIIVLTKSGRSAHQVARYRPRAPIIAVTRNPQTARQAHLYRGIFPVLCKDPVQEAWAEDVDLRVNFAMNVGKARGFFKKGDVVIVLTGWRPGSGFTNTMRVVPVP
# NIH3T3 = assay: Cytotoxicity against mouse 3T3 cells assessed as reduction in cell viability after 72 hrs by MTT assay; type: cell-based; conditions: NIH3T3, 72 h
# SF-126 = assay: Antiproliferative activity against human SF126 cells assessed as reduction in cell viability after 72 hrs by MTT assay; type: functional, cell-based; conditions: SF-126, 72 h
# Mus musculus [4] = assay: Reduction in STAT3 gene expression in tumor of Bar b/c nude mouse xenografted with human U118MG cells at 50 mg/kg, ip adminstered every 3 days for 3 weeks; type: functional, organism-based
# Mus musculus [5] = assay: Reduction in phosphorylated STAT3 expression in tumor of Bar b/c nude mouse xenografted with human U118MG cells at 50 mg/kg, ip adminstered twice weekly for 3 weeks and measured after 20 days by immunohistochemical analysis; type: functional, organism-based
# Mus musculus [6] = assay: Reduction in Bcl2 protein expression in tumor of Bar b/c nude mouse xenografted with human U118MG cells at 50 mg/kg, ip adminstered twice weekly for 3 weeks and measured after 20 days by immunohistochemical analysis; type: functional, organism-based
# Mus musculus [7] = assay: Reduction in phosphorylated STAT3 expression in tumor of siPKM2-treated Bar b/c nude mouse xenografted with human U118MG cells at 50 mg/kg, ip adminstered twice weekly for 3 weeks and measured after 20 days by immunohistochemical analysis; type: functional, organism-based
# Mus musculus [8] = assay: Reduction in STAT3 protein expression in tumor of Bar b/c nude mouse xenografted with human U118MG cells at 50 mg/kg, ip adminstered every 3 days for 3 weeks and measured after 20 days by Western blot analysis; type: functional, organism-based
# Mus musculus [9] = assay: Reduction in vimentin protein expression in tumor of siPKM2-treated Bar b/c nude mouse xenografted with human U118MG cells at 50 mg/kg, ip adminstered twice weekly for 3 weeks and measured after 20 days by immunohistochemical analysis; type: functional, organism-based
# Mus musculus [10] = assay: Increase in E-cadherin protein expression in tumor of Bar b/c nude mouse xenografted with human U118MG cells at 50 mg/kg, ip adminstered every 3 days for 3 weeks and measured after 20 days by Western blot analysis; type: functional, organism-based
# Mus musculus [11] = assay: Reduction in Bcl2 protein expression in tumor of siPKM2-treated Bar b/c nude mouse xenografted with human U118MG cells at 50 mg/kg, ip adminstered twice weekly for 3 weeks and measured after 20 days by immunohistochemical analysis; type: functional, organism-based
# Mus musculus [12] = assay: Reduction in Bcl2 protein expression in tumor of Bar b/c nude mouse xenografted with human U118MG cells at 50 mg/kg, ip adminstered every 3 days for 3 weeks and measured after 20 days by Western blot analysis; type: functional, organism-based
# Mus musculus [13] = assay: Reduction in vimentin protein expression in tumor of Bar b/c nude mouse xenografted with human U118MG cells at 50 mg/kg, ip adminstered every 3 days for 3 weeks and measured after 20 days by Western blot analysis; type: functional, organism-based
# U-118-MG [14] = assay: Antitumor activity against human U118MG cells xenografted in siPKM2-treated Bar b/c nude mouse assessed as tumor growth at 50 mg/kg, ip adminstered twice weekly for 3 weeks measured every 3 days for 20 days by caliper method; type: functional, organism-based
# [15] = Toxicity in Bar b/c nude mouse xenografted with human U118MG cells assessed as effect on body weight at 50 mg/kg, ip adminstered twice weekly for 3 weeks and measured every 3 days for 20 days; type: organism-based; conditions: in vivo, 480 h
# Mus musculus [16] = assay: Increase in E-cadherin protein expression in tumor of siPKM2-treated Bar b/c nude mouse xenografted with human U118MG cells at 50 mg/kg, ip adminstered twice weekly for 3 weeks and measured after 20 days by immunohistochemical analysis; type: functional, organism-based
# Mus musculus [17] = assay: Increase in Bax protein expression in tumor of Bar b/c nude mouse xenografted with human U118MG cells at 50 mg/kg, ip adminstered every 3 days for 3 weeks and measured after 20 days by Western blot analysis; type: functional, organism-based
# Mus musculus [18] = assay: Reduction in Bcl2 gene expression in tumor of Bar b/c nude mouse xenografted with human U118MG cells at 50 mg/kg, ip adminstered every 3 days for 3 weeks; type: functional, organism-based
# U-118-MG [19] = assay: Antitumor activity against human U118MG cells xenografted in Bar b/c nude mouse assessed as reduction in tumor weight at 50 mg/kg, ip adminstered twice weekly for 3 weeks and measured every 3 days for 20 days by caliper method; type: functional, organism-based
# Mus musculus [20] = assay: Increase in E-cadherin gene expression in tumor of Bar b/c nude mouse xenografted with human U118MG cells at 50 mg/kg, ip adminstered every 3 days for 3 weeks; type: functional, organism-based
# Mus musculus [21] = assay: Increase in E-cadherin protein expression in tumor of Bar b/c nude mouse xenografted with human U118MG cells at 50 mg/kg, ip adminstered twice weekly for 3 weeks and measured after 20 days by immunohistochemical analysis; type: functional, organism-based
# U-118-MG [22] = assay: Antitumor activity against human U118MG cells xenografted in Bar b/c nude mouse assessed as reduction in tumor growth at 50 mg/kg, ip adminstered twice weekly for 3 weeks and measured every 3 days for 20 days by caliper method; type: functional, organism-based
# Mus musculus [23] = assay: Reduction in vimentin protein expression in tumor of Bar b/c nude mouse xenografted with human U118MG cells at 50 mg/kg, ip adminstered twice weekly for 3 weeks and measured after 20 days by immunohistochemical analysis; type: functional, organism-based
# Mus musculus [24] = assay: Increase in bax protein expression in tumor of Bar b/c nude mouse xenografted with human U118MG cells at 50 mg/kg, ip adminstered twice weekly for 3 weeks and measured after 20 days by immunohistochemical analysis; type: functional, organism-based
# Mus musculus [25] = assay: Increase in bax protein expression in tumor of siPKM2-treated Bar b/c nude mouse xenografted with human U118MG cells at 50 mg/kg, ip adminstered twice weekly for 3 weeks and measured after 20 days by immunohistochemical analysis; type: functional, organism-based
# Pyruvate kinase PKM [26] = biological target: T1, Pyruvate kinase PKM; assay: Activation of recombinant human N-terminal 6His-tagged PKM2 expressed in Escherichia coli BL21 cells after 50 mins by fluorescence based analysis
# Target sequence in this assay (P14618 whole entry): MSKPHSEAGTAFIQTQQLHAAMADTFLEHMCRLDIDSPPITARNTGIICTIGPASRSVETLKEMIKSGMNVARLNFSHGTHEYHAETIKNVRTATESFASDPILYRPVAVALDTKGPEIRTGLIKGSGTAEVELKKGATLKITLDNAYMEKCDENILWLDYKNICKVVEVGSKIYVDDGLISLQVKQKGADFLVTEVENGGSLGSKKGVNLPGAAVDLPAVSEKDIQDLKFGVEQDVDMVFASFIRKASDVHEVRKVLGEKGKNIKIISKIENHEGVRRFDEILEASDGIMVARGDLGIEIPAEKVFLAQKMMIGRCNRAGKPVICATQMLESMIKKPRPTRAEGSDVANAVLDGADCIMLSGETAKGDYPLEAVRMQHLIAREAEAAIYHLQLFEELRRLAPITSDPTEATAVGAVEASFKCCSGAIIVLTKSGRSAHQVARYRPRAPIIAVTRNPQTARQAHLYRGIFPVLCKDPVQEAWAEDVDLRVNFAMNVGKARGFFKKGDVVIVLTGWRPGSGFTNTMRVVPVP
smiles,measurement,setting,value
C=C1C(=O)O[C@H]2[C@H]1CC/C(C(=O)OCCOCCOCCOCCOCCOCCOCCOCCOCCOCCOCCOCCOCCOCCOCCOCCOCCOCCOCCOCCOCCOCCOCCOCCOC(=O)/C1=C/CC[C@@]3(C)O[C@H]3[C@H]3OC(=O)C(=C)[C@@H]3CC1)=C\CC[C@@]1(C)O[C@@H]21,IC50,C6,> 50 µM
same,IC50,U-251,> 50 µM
same,IC50,U-87 MG,> 50 µM
same,IC50,[1],> 50 µM
same,IC50,U-118-MG [2],> 50 µM
same,fold change (FC),Pyruvate kinase PKM [3],> 2
same,IC50,NIH3T3,> 50 µM
same,IC50,SF-126,> 50 µM
C=C1C(=O)O[C@H]2[C@H]1CC/C(C(=O)OCCOCCOCCOCCOCCOCCOCCOCCOCCOCCOC(=O)/C1=C/CC[C@@]3(C)O[C@H]3[C@H]3OC(=O)C(=C)[C@@H]3CC1)=C\CC[C@@]1(C)O[C@@H]21,IC50,C6,14.2 µM
same,IC50,U-251,23.3 µM
same,IC50,U-87 MG,> 50 µM
same,IC50,[1],24.5 µM
same,IC50,U-118-MG [2],18.7 µM
same,fold change (FC),Pyruvate kinase PKM [3],> 2
same,IC50,NIH3T3,> 50 µM
same,IC50,SF-126,23.1 µM
CN(C)C[C@@H]1C(=O)O[C@H]2[C@H]1CC/C(C(=O)OCCOCCOC(=O)/C1=C/CC[C@@]3(C)O[C@H]3[C@H]3OC(=O)[C@@H](CN(C)C)[C@@H]3CC1)=C\CC[C@@]1(C)O[C@@H]21.O=C(O)/C=C/C(=O)O.O=C(O)/C=C/C(=O)O,inhibition,Mus musculus [4],Active
same,inhibition,Mus musculus [5],Active
same,inhibition,Mus musculus [6],Active
same,inhibition,Mus musculus [7],inactive
same,inhibition,Mus musculus [8],Active
same,inhibition,Mus musculus [9],inactive
same,Activity,Mus musculus [10],Active
same,inhibition,Mus musculus [11],inactive
same,inhibition,Mus musculus [12],Active
same,inhibition,Mus musculus [13],Active
same,Activity,U-118-MG [14],inactive
same,Activity,[15],Non-Toxic
same,Activity,Mus musculus [16],inactive
same,Activity,Mus musculus [17],Active
same,inhibition,Mus musculus [18],Active
same,Activity,U-118-MG [19],Active
same,Activity,Mus musculus [20],Active
same,Activity,Mus musculus [21],Active
same,Activity,U-118-MG [22],Active
same,inhibition,Mus musculus [23],Active
same,Activity,Mus musculus [24],Active
same,Activity,Mus musculus [25],inactive
C=C1C(=O)O[C@H]2[C@H]1CC/C(C(=O)OCCOCCOCCOCCOCCOCCOCCOCCOC(=O)/C1=C/CC[C@@]3(C)O[C@H]3[C@H]3OC(=O)C(=C)[C@@H]3CC1)=C\CC[C@@]1(C)O[C@@H]21,IC50,C6,4.98 µM
same,IC50,U-251,> 50 µM
same,IC50,U-87 MG,12.9 µM
same,IC50,[1],25.7 µM
same,IC50,U-118-MG [2],11.8 µM
same,AC50,Pyruvate kinase PKM [26],0.065 µM
same,fold change (FC),Pyruvate kinase PKM [3],> 2
same,IC50,NIH3T3,22 µM
same,IC50,SF-126,> 50 µM
C=C1C(=O)O[C@H]2[C@H]1CC/C(C(=O)OCCOCCOCCOCCOCCOCCOCCOCCOCCOCCOCCOCCOCCOCCOCCOCCOCCOCCOC(=O)/C1=C/CC[C@@]3(C)O[C@H]3[C@H]3OC(=O)C(=C)[C@@H]3CC1)=C\CC[C@@]1(C)O[C@@H]21,IC50,C6,> 50 µM
same,IC50,U-251,> 50 µM
same,IC50,U-87 MG,> 50 µM
same,IC50,[1],> 50 µM
same,IC50,U-118-MG [2],> 50 µM
same,fold change (FC),Pyruvate kinase PKM [3],> 2
same,IC50,NIH3T3,> 50 µM
same,IC50,SF-126,> 50 µM
C=C1C(=O)O[C@H]2[C@H]1CC/C(C(=O)OCCOCCOCCOCCOCCOCCOCCOCCOCCOCCOCCOCCOC(=O)/C1=C/CC[C@@]3(C)O[C@H]3[C@H]3OC(=O)C(=C)[C@@H]3CC1)=C\CC[C@@]1(C)O[C@@H]21,IC50,C6,> 50 µM
same,IC50,U-251,> 50 µM
same,IC50,U-87 MG,16.2 µM
same,IC50,[1],50.1 µM
same,IC50,U-118-MG [2],17.4 µM
same,fold change (FC),Pyruvate kinase PKM [3],> 2
same,IC50,NIH3T3,> 50 µM
same,IC50,SF-126,> 50 µM
COc1cccc2c1C(=O)c1c(O)c3c(c(O)c1C2=O)C[C@@](O)(C(=O)CO)C[C@@H]3O[C@H]1C[C@H](N)[C@H](O)[C@H](C)O1 [DOXORUBICIN HYDROCHLORIDE],IC50,C6,0.06 µM
same,IC50,U-251,48 µM
same,IC50,U-87 MG,0.15 µM
same,IC50,[1],1.84 µM
same,IC50,U-118-MG [2],0.09 µM
same,IC50,NIH3T3,0.34 µM
same,IC50,SF-126,0.26 µM
